Ki data for seven compounds are collected here from ChEMBL document CHEMBL1141124 (J Med Chem, 2005).

Structures are written as SMILES. Starred links: 1 amine or outer side, 2 acyl side, 3 side chain; linkers in the order of their positions; H or OH if unused. Non-standard residues stand in square brackets, D forms with d. Residues, ends and D or L forms follow the SMILES beside them. X2 = O=C(c1cc(CN[*:1])cc(Cc2ccc(O)cc2)c1)[*:2]; X1 = O=C(c1cc(Cc2ccc(O)cc2)cc(N[*:1])c1)[*:2]; Phe(4-NH2) = Nc1ccc(C[C@H](N)C(=O)O)cc1 Some results are limits rather than exact numbers.

The assay addresses T1, Type-1 angiotensin II receptor B (Rattus norvegicus, UniProt P29089).
T1 sequence (P29089 whole entry): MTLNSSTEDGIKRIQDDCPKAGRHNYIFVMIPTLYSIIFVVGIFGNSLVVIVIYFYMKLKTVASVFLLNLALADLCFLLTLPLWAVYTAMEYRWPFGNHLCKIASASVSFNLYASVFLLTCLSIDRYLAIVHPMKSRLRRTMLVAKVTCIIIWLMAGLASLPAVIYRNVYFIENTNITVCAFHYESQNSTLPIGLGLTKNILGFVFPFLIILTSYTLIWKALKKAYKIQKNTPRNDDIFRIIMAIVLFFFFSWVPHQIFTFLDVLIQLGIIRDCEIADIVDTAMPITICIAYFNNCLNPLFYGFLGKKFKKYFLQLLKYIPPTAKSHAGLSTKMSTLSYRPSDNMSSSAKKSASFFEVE
The assay is described as follows: Binding affinity for angiotensin II receptor, type 1 in rat liver membrane using [125I]-Ang II as radioligand, in pH 7.4 Tris-HCl buffer for 2 hr at 25 degree C. Format: cell membranes.
For orientation: Ki means the dissociation constant of the complex between target and ligand, obtained from inhibition or displacement. Read a high Ki as lower affinity. With `CC(C)[C@H](NC(=O)[C@H](CCCN=C(N)N)NC(=O)[C@@H](N)CC(=O)O)C(=O)NCc1cc(Cc2ccc(O)cc2)cc(C(=O)N[C@@H](Cc2c[nH]cn2)C(=O)N2CCC[C@H]2C(=O)N[C@@H](Cc2ccccc2)C(=O)O)c1` (H-DRV[X2]HPF-OH), the Ki was above 10 µM.
Then `NC(N)=NCCC[C@H](NC(=O)[C@@H](N)CC(=O)O)C(=O)NCc1cc(Cc2ccc(O)cc2)cc(C(=O)N[C@@H](Cc2c[nH]cn2)C(=O)N2CCC[C@H]2C(=O)N[C@@H](Cc2ccccc2)C(=O)O)c1` (H-DR[X2]HPF-OH), with above 10 µM; and `CC[C@H](C)[C@H](NC(=O)c1cc(CNC(=O)[C@H](CCCN=C(N)N)NC(=O)[C@@H](N)CC(=O)O)cc(Cc2ccc(O)cc2)c1)C(=O)N[C@@H](Cc1c[nH]cn1)C(=O)N1CCC[C@H]1C(=O)N[C@@H](Cc1ccccc1)C(=O)O` (H-DR[X2]IHPF-OH), with above 10 µM; and `CC(C)[C@H](NC(=O)[C@H](CCCN=C(N)N)NC(=O)[C@@H](N)CC(=O)O)C(=O)Nc1cc(Cc2ccc(O)cc2)cc(C(=O)N[C@@H](Cc2c[nH]cn2)C(=O)N2CCC[C@H]2C(=O)N[C@@H](Cc2ccccc2)C(=O)O)c1` (H-DRV[X1]HPF-OH), with 0.0303 µM.
Then `CC[C@H](C)[C@H](NC(=O)[C@H](Cc1ccc(O)cc1)NC(=O)[C@@H](NC(=O)[C@H](CCCNC(=N)N)NC(=O)CNC)C(C)C)C(=O)N[C@@H](Cc1cnc[nH]1)C(=O)N1CCC[C@H]1C(=O)N[C@@H](Cc1ccccc1)C(=O)O`, with 0.00016 µM; and `CC[C@H](C)[C@H](NC(=O)[C@H](Cc1ccc(O)cc1)NC(=O)[C@@H](NC(=O)[C@H](CCCN=C(N)N)NC(=O)[C@@H](N)CC(=O)O)C(C)C)C(=O)N[C@@H](Cc1ccc(N)cc1)C(=O)N1CCC[C@H]1C(=O)N[C@@H](Cc1ccccc1)C(=O)O` (H-DRVYI[Phe(4-NH2)]PF-OH), with above 10 µM.
Then `N=C(N)NCCC[C@H](NC(=O)[C@@H](N)CC(=O)O)C(=O)Nc1cc(Cc2ccc(O)cc2)cc(C(=O)N[C@@H](Cc2cnc[nH]2)C(=O)N2CCC[C@H]2C(=O)N[C@@H](Cc2ccccc2)C(=O)O)c1` (H-DR[X1]HPF-OH), with above 10 µM.
